In one series the test system is Trypanosoma cruzi. Description: Antiprotozoal activity against Trypanosoma cruzi amastigotes measured after 24 hrs. Format: functional, organism-based.
The subject of series [1] is Leishmania donovani. Description: Antileishmanial activity against Leishmania donovani MHOM/ET/67/HU3 axenic amastigotes. Format: functional, organism-based.
Series [2] relates to Trypanosoma brucei. As to the kind of experiment: Antitrypanosomal activity against Trypanosoma brucei assessed as reduction in parasite growth. Format: functional, organism-based.
A short description of series [3]: Inhibition of Trypanosoma brucei NMT.
For series [4], the target named is T1, Glycylpeptide N-tetradecanoyltransferase (Plasmodium falciparum, UniProt Q9U419).
T1 sequence (Q9U419 whole entry): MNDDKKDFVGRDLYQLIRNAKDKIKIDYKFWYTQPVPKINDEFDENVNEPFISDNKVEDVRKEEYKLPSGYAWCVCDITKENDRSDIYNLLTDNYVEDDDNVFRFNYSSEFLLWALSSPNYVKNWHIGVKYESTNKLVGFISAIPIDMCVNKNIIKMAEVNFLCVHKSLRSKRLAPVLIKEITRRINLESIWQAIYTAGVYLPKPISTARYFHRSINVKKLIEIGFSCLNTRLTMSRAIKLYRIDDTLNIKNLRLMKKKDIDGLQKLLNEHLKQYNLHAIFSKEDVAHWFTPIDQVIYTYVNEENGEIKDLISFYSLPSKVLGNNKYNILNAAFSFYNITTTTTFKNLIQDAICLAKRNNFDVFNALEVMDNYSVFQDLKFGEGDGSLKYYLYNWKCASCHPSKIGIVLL
Description: Inhibition of recombinant N-terminal Plasmodium falciparum NMT expressed in Escherichia coli using peptide substrate preincubated for 5 mins followed by substrate addition and measured after 30 mins by scintillation proximity assay. For orientation: In a scintillation proximity assay essentially only radioactivity close to the scintillant gives light.

For the next series, the system named is Leishmania amazonensis. Description: Antileishmanial activity against Leishmania amazonensis IFLA/BR/1967/PH8 promastigote. Format: functional, organism-based.
Series [5] relates to Plasmodium falciparum. Description: Antiplasmodial activity against synchronized late stage trophozoite Plasmodium falciparum 3D7 assessed as reduction in parasitemia relative to control. Format: functional. Details: scale not given: the % may be the effect or the level left.
Series [6] relates to Leishmania donovani. As to the kind of experiment: Antileishmanial activity against Leishmania donovani promastigote assessed as reduction in parasite growth measured after 72 hrs. Format: functional, organism-based.
Series [7] has as its system Trypanosoma brucei brucei. As to the kind of experiment: Antitrypanosomal activity against bloodstream Trypanosoma brucei brucei s427 assessed as reduction in parasite growth measured after 72 hrs by inverted microscope based analysis. Conditions: s427, 72 h. Format: functional, organism-based.
Series [8] has as its system Plasmodium falciparum. Description: Antiplasmodial activity against Plasmodium falciparum. Format: functional, organism-based.
Series [9] addresses T2, Glycylpeptide N-tetradecanoyltransferase 1 (Homo sapiens, UniProt P30419).
T2 sequence (P30419 whole entry): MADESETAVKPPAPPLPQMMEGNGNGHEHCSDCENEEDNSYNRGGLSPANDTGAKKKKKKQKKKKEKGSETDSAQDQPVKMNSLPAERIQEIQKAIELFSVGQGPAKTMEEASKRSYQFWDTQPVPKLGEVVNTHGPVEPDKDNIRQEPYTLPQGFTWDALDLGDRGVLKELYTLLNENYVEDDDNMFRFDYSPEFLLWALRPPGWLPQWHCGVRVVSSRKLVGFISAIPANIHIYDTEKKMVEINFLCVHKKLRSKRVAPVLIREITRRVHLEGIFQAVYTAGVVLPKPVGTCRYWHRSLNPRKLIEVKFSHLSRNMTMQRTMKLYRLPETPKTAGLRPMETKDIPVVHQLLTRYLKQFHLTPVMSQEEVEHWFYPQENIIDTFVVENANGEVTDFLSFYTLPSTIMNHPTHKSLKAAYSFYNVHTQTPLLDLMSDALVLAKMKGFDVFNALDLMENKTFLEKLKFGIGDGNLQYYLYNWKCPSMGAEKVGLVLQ
As to the kind of experiment: Inhibition of human NMT.

Series [10] is described as follows: Cytotoxicity against mouse RAW 264 cells by alamar blue staining based analysis. Format: functional. The conditions noted are these: RAW264.7, read-out: ED50 (the source's name).
Series [11] deals with Trypanosoma brucei. Description: Antiprotozoal activity against blood stream form Trypanosoma brucei assessed as reduction in number of viable parasites measured after 72 hrs by Alamar blue staining based analysis. Format: functional. The conditions noted are these: read-out: ED50 (the source's name). In general terms: Resazurin is reduced to fluorescent resorufin, in cell work by metabolically active cells.

Series [12] is described as follows: Inhibition of N terminal his-6 tagged recombinant Trypanosoma brucei NMT using CAP5.5 peptide as substrate incubated for 10 mins.
Series [13] in a line: Inhibition of Leishmania donovani NMT using 3H-myristoyl CoA as substrate preincubated for 15 mins followed by substrate addition and measured after 80 mins.
Series [14] in a line: Cytotoxicity against MDCK cells incubated overnight by MTT assay. Format: toxicity, cell-based, Canis lupus familiaris. The conditions noted are these: dog. In general terms: Formazan colour is commonly taken as a measure of viable cells.
Series [15] relates to Plasmodium falciparum. As to the kind of experiment: Antiplasmodial activity against chloroquine resistant Plasmodium falciparum K1 assessed as inhibition of plasmodial growth measured after 48 hrs by flow cytometry analysis. Format: functional, organism-based. Conditions: K1, 48 h.
The nature of series [16]: Selectivity index, ratio of IC50 for MDCK cells to IC50 for trophozoite stage Plasmodium falciparum 3D7. Format: toxicity. Conditions: dog; read-out: Ratio IC50.
Series [17] deals with Plasmodium falciparum. Description: Antiplasmodial activity against trophozoite stage Plasmodium falciparum 3D7 assessed as inhibition of plasmodial growth measured after 48 hrs by flow cytometry analysis. Format: functional, organism-based. Conditions: 3D7, 48 h.

Structures are written as SMILES.

In the series with Trypanosoma cruzi, `Cc1nn(C)c(C)c1N(C(F)F)S(=O)(=O)c1c(Cl)cc(-c2ccc(CCCC3CCN(C)CC3)cc2)cc1Cl` returned an EC50 of 0.06 µM. `Cc1nn(C)c(C)c1N(C)S(=O)(=O)c1c(Cl)cc(CCCC2CCN(C)CC2)cc1Cl`: the EC50 in the series with Leishmania donovani [1] is 7.1 µM.

The IC50 is the concentration that inhibits the measured activity by half. In the case of `COc1cc(C2SCC(=O)N2Cc2ccccn2)ccc1O` (stereo unspecified), the EC50 in the series on Trypanosoma brucei [2] stood at 14 µM. Also, the IC50 in series [3] stood at 0.27 µM. For `CN(C)C(=O)c1ccc2nc(NC(=O)[C@@H]3CCC[C@H](NCc4ccc5ccoc5c4)C3)sc2c1`, the IC50 in [4] was determined as 53 µM. The compound `O=C(C[Se]C(=O)c1ccccc1)Nc1ccc(Br)cc1` had an IC50 with Leishmania amazonensis of 5.5 µM.

As to `O=C(Nc1nc2cc(F)ccc2s1)[C@H]1CC[C@@H](NCc2ccc3ccccc3c2)CC1`, the Activity in the series on Plasmodium falciparum [5] stood at 80%. For the same compound, the IC50 in [4] was found to be 53 µM. Regarding `Cc1nn(C)c(Cl)c1S(=O)(=O)Nc1ccc(Oc2ccc(F)cc2)cc1`, the IC50 in the series with Leishmania donovani [6] turned out to be 45.3 µM; in series [7], 11.8 µM. `Cc1ccc(S(=O)(=O)NC(C)C(=O)NC(C)C(=O)NC23CC4CC(CC(C4)C2)C3)cc1` (stereo unspecified) showed an IC50 with Plasmodium falciparum [8] of 3.6 µM. Regarding `Cc1cc(CN2C(=O)COc3c(CCCCC4CCNCC4)cccc32)no1`, in the series with Trypanosoma brucei [2], the EC50 is 0.007 µM. As for `Cc1onc(-c2ccccc2)c1CNS(=O)(=O)c1cnn(-c2ccccc2)c1C`, the IC50 with Leishmania donovani [6] came to 15.7 µM; in series [7], 45 µM. `Cc1cc(CN2C(=O)COc3cc(CCCOC[C@@H]4CCCN4C)ccc32)no1`: the IC50 in [9] is 24 µM; in [3], 0.009 µM. Besides, in the series on Trypanosoma brucei [2], the EC50 amounted to 0.007 µM. As for `Cc1cc(CN2C(=O)COc3cc(CCCOC4CCNCC4)ccc32)no1`, the EC50 with Trypanosoma brucei [2] worked out at 0.007 µM. Turning to `CCc1ccc(NC(=O)C[Se]C(=O)c2ccc(Cl)cc2)cc1`, the IC50 with Leishmania amazonensis was 7.41 µM.

For `CC(=O)O[C@@H]1C2[C@H](N(C)C)C(O)=C(C(N)=O)C(=O)[C@@]2(O)C(O)=C2C(=O)c3c(O)cccc3C(=O)[C@@H]21` (stereo partly specified), the values for the EC50 (in series [10]; in the series with Trypanosoma brucei [11]) were 1500 µM and 66 µM, respectively. In series [12], the IC50 was determined as 0.25 µM.

On to `O=C(Nc1nc2ccccc2s1)[C@H]1CC[C@@H](NCc2ccc3ccccc3c2)CC1`, for which the Activity in the series with Plasmodium falciparum [5] amounted to 80%. Further, the IC50 in series [4] amounted to 30 µM. Turning to `Cc1nc(CN2C(=O)COc3ccccc32)no1`, it took 7 µM to reach half-maximal inhibition in series [3] (IC50). Regarding `Cc1cc(CN2C(=O)COc3c(CCCCC4CCCN(C)CC4)cccc32)no1` (stereo unspecified), the concentration for half-maximal inhibition (IC50) in series [9] was 0.1 µM; in [3] it was under 0.002 µM. Further, the EC50 with Trypanosoma brucei [2] is 0.007 µM. Take `Cc1cc(CN2C(=O)COc3cc(CCCCC4CCN(C)CC4)ccc32)no1`: the EC50 in the series on Trypanosoma brucei [2] came out at 0.007 µM.

`c1cncc(CCNCc2cccc(-c3cccc(CN4CCc5ncsc5C4)c3)c2)c1` came in with a 50% inhibitory concentration (IC50) in series [13] of 0.16 µM. For `O=S(=O)(c1cc(Cl)ccc1Cl)N1CCC(O[C@@H](c2ccc(Cl)cc2)c2ccccn2)CC1`, the values for the IC50 (in series [14]; in the series on Plasmodium falciparum [15]; in the series with Plasmodium falciparum [17]) were over 200 µM, 4.19 µM and 2.91 µM, respectively. The selectivity ratio in series [16] is over 68.8. With `CCOC(=O)c1c(C)nn(-c2ccc(NS(=O)(=O)c3ccc(OC)cc3)cc2)c1C`, the IC50 turned out to be 13.8 µM in the series with Leishmania donovani [6] and 2.91 µM in series [7].

These data come from ChEMBL document CHEMBL5634069, “Exploring N-myristoyltransferase as a promising drug target against parasitic neglected tropical diseases” (Eur J Med Chem, 2023).
